This is an account of results in article PMC9607427, “Novel 7-Chloro-(4-thioalkylquinoline) Derivatives: Synthesis and Antiproliferative Activity through Inducing Apoptosis and DNA/RNA Damage” (Pharmaceuticals, 2022).

Data set [1] relates to CCRF-CEM lymphoblasts. Kind of data set: BrDU incorporation analysis (DNA synthesis). It is filed as cell-based, human. The following applies: 24 h, 1 × IC50 (first value of cell).
Data set [2] has as its system HCT116p53−/− (HCT116 with deleted p53 gene). Kind of data set: Cytotoxic MTS assay, HCT116p53−/−. It is filed as cell-based, human. Put shortly:
(§1)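 MTS, 72 h exposure, 37 °C/5% CO2; 4-fold serial dilutions added at t0; OD490 after 1–4 h MTS; IC50 = 50% growth inhibition; technical duplicates, ≥3 biological replicates.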

The test system of data set [3] is CCRF-CEM (childhood T cell acute lymphoblastic leukemia). Briefly: Cytotoxic MTS assay, CCRF-CEM. Format: cell-based, human. Put shortly: as §1
Data set [4] deals with K562-TAX (chronic myeloid leukemia paclitaxel-resistant subline). Briefly: Cytotoxic MTS assay, K562-TAX. It is filed as cell-based, human. Put shortly: as §1
A general note: Tetrazolium dyes change colour on reduction, which living cells bring about.

In data set [5] the test system is BJLD (human lung fibroblast doxorubicin-resistant). Briefly: Cytotoxic MTS assay, BJLD. It is filed as cell-based. Put shortly:
as §1

In data set [6] the test system is CCRF-CEM lymphoblasts. Briefly: Mitosis, pH3Ser10 antibody labeling, flow cytometry. It is filed as cell-based, human. The following applies: 24 h. As to the method:
The effect of compounds on cell cycle distribution was determined to gain insights into the mechanism of its antiproliferative activity. […] For example, as compared with control, the percentage of cells in G2/M phases was increased by treatment with 5 × IC50 μM of compounds for 24 h (Table 4). […] As shown in (Table 4), there was a marked increase in the sub-G1 from 2.91 in untreated cells. 5-Bromo-2-deoxyuridine (BrDU) is incorporated into newly synthesized DNA, and 5-bromouridine (BrU) pulse labeling is therefore commonly used as a proliferation marker. Low BrDU and BrU incorporation into the DNA or RNA, respectively, of treated cells with all compounds at 5 × IC50 reflected inhibition of DNA and RNA synthesis, indicating irreversible apoptotic changes. The percentage of […] cells incorporating 5-bromouridine is proportional to the transcriptional activity of CCRF-CEM cells.
CCRF-CEM cells were seeded at a density of 1 × 10^6 cells per one mL in 6-well plates (TTP) and were cultivated with compounds at concentrations corresponding to 1 × or 5 × IC50 value. Together with the compounds-treated cells, a vehicle-treated sample was harvested at the same time point. After 24 h, the cells were washed with cold phosphate-buffered saline (PBS) and fixed in 70% ethanol added dropwise and stored overnight at −20 °C. Afterward, cells were washed in hypotonic citrate buffer, treated with RNase (50 µg mL^−1), and stained with propidium iodide. Flow cytometry using a 488 nm single beam laser (Becton Dickinson) was used for measurement. The cell cycle was analyzed by the software ModFitLT (Verity), and apoptosis was measured in a logarithmic model expressing the percentage of the particles with propidium content lower than cells in the G0/G1 phase (<G1) of the cell cycle. Half of the sample was used for pH3Ser10 antibody (Sigma) labeling and subsequent flow cytometry analysis of the cells in mitosis.
A general note: Flow cytometry measures light scatter and fluorescence of single cells or particles in a stream.

Data set [7] relates to HCT116 (colorectal carcinoma). Kind of data set: Cytotoxic MTS assay, HCT116. Format: cell-based, human. In short, it runs like this:
as §1

In data set [8] the test system is CEM-DNR bulk (daunorubicin-resistant subline of CCRF-CEM cells). Briefly: Cytotoxic MTS assay, CEM-DNR. It is filed as cell-based, human. Put shortly:
as §1

A further data set has as its system U2OS (osteosarcoma). Briefly: Cytotoxic MTS assay, U2OS. Format: cell-based, human. Put shortly:
as §1

Data set [9] deals with MRC-5 (noncancerous human lung fibroblasts). Kind of data set: Cytotoxic MTS assay, MRC-5. It is filed as cell-based. In short, it runs like this: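 Growth inhibition over 72 h at 37 °C was quantified with MTS reagent (OD 490 nm), using four-fold compound dilutions added at seeding; the 50% inhibitory concentration was reported.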
Where [10] appears, read: 5 × IC50 (second value of cell).

Usually IC50 stands for the concentration at which inhibition is half-maximal. A higher IC50 goes with weaker potency. `COc1ccc(C(=O)OCCS(=O)(=O)c2cc[n+]([O-])c3cc(Cl)ccc23)cc1` [Compound 63, 2-[(N-Oxide 7-chloroquinolin-4-yl)sulfonyl]ethyl-4-methoxybenzoate]: the “DNA Synthesis (% positive of cells)” value in the data set with CCRF-CEM lymphoblasts [1] was 41.06%. The IC50 in data set [2] turned out to be 16.4 µM; in [3], 0.77 µM; in data set [4] it was 4.71 µM; in [5] it was 12.1 µM; in [7] it was 16.2 µM; in data set [8] it was 8.74 µM. For the same molecule, the figures for the IC50 (with U2OS (osteosarcoma); in data set [9]) were 5.71 µM and 4 µM, respectively. For the same molecule, the “M (Mitosis Phospho-Histone3 (Ser10)), % of Total Cellular Populations” value (“M (Mitosis Phospho-Histone3 (Ser10)), %” below) in the data set with CCRF-CEM lymphoblasts [6] (1 × IC50 (first value of cell)) is listed as 1.66%; in the data set on CCRF-CEM lymphoblasts [6] (setting [10]) it was 1.53%.

As to `COc1ccc(C(=O)OCCS(=O)(=O)c2cc[n+]([O-])c3cc(Cl)ccc23)cc1[N+](=O)[O-]` [Compound 69, 2-[(N-Oxide 7-chloroquinolin-4-yl)sulfonyl]ethyl-4-methoxy-3-nitrobenzoate], the “DNA Synthesis (% positive of cells)” value in the data set with CCRF-CEM lymphoblasts [1] stood at 34.45%. Moreover, the IC50 in data set [2] was 11.2 µM; in [3], 1.38 µM; in data set [4] it was 7.32 µM; in [5], 19.5 µM; in data set [7], 13.1 µM; in data set [8] it was 19.1 µM. Besides, the IC50 in the data set with U2OS (osteosarcoma) is 10.3 µM; in data set [9], 8.41 µM. Further, the “M (Mitosis Phospho-Histone3 (Ser10)), %” value with CCRF-CEM lymphoblasts [6] (1 × IC50 (first value of cell)) worked out at 1.61%; in the data set on CCRF-CEM lymphoblasts [6] (setting [10]), 1.6%.

Regarding `O=C(OCCS(=O)(=O)c1cc[n+]([O-])c2cc(Cl)ccc12)c1ccc(C(F)(F)F)cc1` [Compound 72, 2-[(N-Oxide 7-chloroquinolin-4-yl)sulfonyl]ethyl-4-(trifluoromethyl)benzoate], the “DNA Synthesis (% positive of cells)” value in the data set on CCRF-CEM lymphoblasts [1] was 27.07%. The half-maximal inhibitory concentration (IC50) in data set [2] was 16.4 µM; in data set [3], 2.14 µM; in data set [4], 6.06 µM; in data set [5] it was 27 µM; in [7], 17.3 µM; in data set [8], 25.2 µM. Further, the IC50 in the data set on U2OS (osteosarcoma) stood at 18.4 µM; in [9], 24.4 µM. Besides, the “M (Mitosis Phospho-Histone3 (Ser10)), %” value in the data set on CCRF-CEM lymphoblasts [6] (1 × IC50 (first value of cell)) amounted to 1.61%; in the data set on CCRF-CEM lymphoblasts [6] (setting [10]), 5.28%.

For the molecule `COc1ccccc1C(=O)OCCS(=O)(=O)c1cc[n+]([O-])c2cc(Cl)ccc12` [Compound 68, 2-[(N-Oxide 7-chloroquinolin-4-yl)sulfonyl]ethyl-2-methoxybenzoate], the “DNA Synthesis (% positive of cells)” value in the data set with CCRF-CEM lymphoblasts [1] was 41.27%. Also, the IC50 worked out at 8.3 µM in data set [2]; 1.23 µM in [3]; 4.63 µM in [4]; 10.1 µM in data set [5]; 5.25 µM in data set [7]; 12.2 µM in data set [8]. Moreover, the IC50 is 6.9 µM in the data set on U2OS (osteosarcoma) and 4.92 µM in data set [9]. Moreover, the “M (Mitosis Phospho-Histone3 (Ser10)), %” value was found to be 1.73% in the data set with CCRF-CEM lymphoblasts [6] (1 × IC50 (first value of cell)) and 2.11% in the data set on CCRF-CEM lymphoblasts [6] (setting [10]).

As for `Cc1ccc([N+](=O)[O-])c(C(=O)OCCS(=O)(=O)c2cc[n+]([O-])c3cc(Cl)ccc23)c1` [Compound 70, 2-[(N-Oxide 7-chloroquinolin-4-yl)sulfonyl]ethyl-5-methyl-2-nitrobenzoate], in the data set with CCRF-CEM lymphoblasts [1], the “DNA Synthesis (% positive of cells)” value is recorded as 35.58%. Moreover, the half-maximal inhibitory concentration (IC50) in data set [2] was 8.75 µM; in data set [3] it was 1.16 µM; in data set [4] it was 6.89 µM; in data set [5], over 50 µM; in [7], 11.5 µM; in [8], 17.4 µM. In addition, the results for the IC50 (with U2OS (osteosarcoma); in data set [9]) were 9.92 µM and 22.9 µM, respectively. Also, the “M (Mitosis Phospho-Histone3 (Ser10)), %” value in the data set on CCRF-CEM lymphoblasts [6] (1 × IC50 (first value of cell)) is reported as 1.57%; in the data set on CCRF-CEM lymphoblasts [6] (setting [10]), 1.08%.

Consider `COc1ccc(OC)c(C(=O)OCCS(=O)(=O)c2cc[n+]([O-])c3cc(Cl)ccc23)c1` [Compound 65, 2-[(N-Oxide 7-chloroquinolin-4-yl)sulfonyl]ethyl-2,5-dimethoxybenzoate], for which the “DNA Synthesis (% positive of cells)” value in the data set with CCRF-CEM lymphoblasts [1] is recorded as 36.82%. The 50% inhibitory concentration (IC50) in [2] was 8.26 µM; in [3], 0.55 µM; in data set [4] it was 6.65 µM; in data set [5] it was 9.68 µM; in data set [7], 8.83 µM; in [8], 8.97 µM. The IC50 in the data set on U2OS (osteosarcoma) amounted to 7.67 µM; in data set [9] it was 4.95 µM. Further, the “M (Mitosis Phospho-Histone3 (Ser10)), %” value with CCRF-CEM lymphoblasts [6] (1 × IC50 (first value of cell)) was found to be 1%; in the data set on CCRF-CEM lymphoblasts [6] (setting [10]), 1.66%.

As to `COc1cc(OC)c(C(=O)OCCS(=O)(=O)c2cc[n+]([O-])c3cc(Cl)ccc23)cc1OC` [Compound 66, 2-[(N-Oxide 7-chloroquinolin-4-yl)sulfonyl]ethyl-2,4,5-trimethoxybenzoate], in the data set on CCRF-CEM lymphoblasts [1], the “DNA Synthesis (% positive of cells)” value is on record as 39.87%. The IC50 in data set [2] was 7.94 µM; in [3], 1.11 µM; in data set [4], 6.25 µM; in [5] it was 11 µM; in [7], 9.22 µM; in data set [8], 8.03 µM. Further, the results for the half-maximal inhibitory concentration (IC50) (in the data set on U2OS (osteosarcoma); in data set [9]) were 8.25 µM and 5.07 µM, respectively. The “M (Mitosis Phospho-Histone3 (Ser10)), %” value came to 1.64% in the data set with CCRF-CEM lymphoblasts [6] (1 × IC50 (first value of cell)) and 2.29% in the data set on CCRF-CEM lymphoblasts [6] (setting [10]).
